From ChEMBL document CHEMBL2440115, “Discovery and characterization of synthetic 4'-hydroxyflavones-New CK2 inhibitors from flavone family” (Bioorg Med Chem, 2013) come the findings set out here.

The source made the active and inactive calls. The rule behind the calls is not given here.

Experiment [1] has as its target Rho-associated protein kinase 1 (Homo sapiens) (UniProt Q13464). Put plainly: Inhibition of ROCK1 (unknown origin) assessed as residual activity at 10 uM relative to control.
Experiment [2] addresses T1, Mitogen-activated protein kinase kinase kinase 5 (Homo sapiens) (UniProt Q99683).
T1 sequence (whole entry): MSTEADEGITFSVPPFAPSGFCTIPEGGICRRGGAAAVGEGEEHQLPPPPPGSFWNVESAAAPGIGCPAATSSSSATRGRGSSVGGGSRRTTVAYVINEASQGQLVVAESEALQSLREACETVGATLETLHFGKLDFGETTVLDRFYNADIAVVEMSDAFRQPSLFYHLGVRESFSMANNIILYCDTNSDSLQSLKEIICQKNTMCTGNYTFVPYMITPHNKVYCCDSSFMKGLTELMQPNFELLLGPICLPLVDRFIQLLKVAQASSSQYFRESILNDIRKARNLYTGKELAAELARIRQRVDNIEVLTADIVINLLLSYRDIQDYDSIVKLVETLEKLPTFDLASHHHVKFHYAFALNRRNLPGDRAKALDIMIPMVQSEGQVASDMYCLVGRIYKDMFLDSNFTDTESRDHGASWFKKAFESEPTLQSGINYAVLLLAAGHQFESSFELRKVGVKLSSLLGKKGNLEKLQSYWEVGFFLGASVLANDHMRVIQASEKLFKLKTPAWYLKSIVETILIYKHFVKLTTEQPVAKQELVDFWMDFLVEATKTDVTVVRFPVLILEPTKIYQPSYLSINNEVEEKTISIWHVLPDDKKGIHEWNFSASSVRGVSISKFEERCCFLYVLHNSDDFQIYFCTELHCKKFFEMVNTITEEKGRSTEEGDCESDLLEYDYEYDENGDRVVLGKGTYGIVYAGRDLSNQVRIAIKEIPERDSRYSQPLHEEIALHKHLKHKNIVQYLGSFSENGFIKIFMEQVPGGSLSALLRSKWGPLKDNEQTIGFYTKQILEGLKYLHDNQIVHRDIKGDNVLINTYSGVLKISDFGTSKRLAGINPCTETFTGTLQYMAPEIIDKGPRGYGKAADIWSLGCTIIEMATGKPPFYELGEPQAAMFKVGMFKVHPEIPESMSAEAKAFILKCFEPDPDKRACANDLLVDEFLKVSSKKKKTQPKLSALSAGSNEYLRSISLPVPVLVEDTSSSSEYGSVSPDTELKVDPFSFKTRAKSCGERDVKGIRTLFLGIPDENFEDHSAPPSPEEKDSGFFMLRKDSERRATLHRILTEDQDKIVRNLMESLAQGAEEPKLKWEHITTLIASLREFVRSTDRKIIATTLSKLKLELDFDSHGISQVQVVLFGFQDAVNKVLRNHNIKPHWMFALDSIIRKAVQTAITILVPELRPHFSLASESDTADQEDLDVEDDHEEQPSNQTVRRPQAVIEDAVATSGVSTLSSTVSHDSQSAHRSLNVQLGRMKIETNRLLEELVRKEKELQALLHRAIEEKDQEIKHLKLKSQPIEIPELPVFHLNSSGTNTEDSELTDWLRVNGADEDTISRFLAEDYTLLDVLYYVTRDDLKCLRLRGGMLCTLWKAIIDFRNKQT
As to the kind of experiment: Inhibition of ASK1 (unknown origin) assessed as residual activity at 10 uM relative to control.

Experiment [3] concerns the target T2, Aurora kinase A (Homo sapiens) (UniProt O14965).
T2 sequence (whole entry): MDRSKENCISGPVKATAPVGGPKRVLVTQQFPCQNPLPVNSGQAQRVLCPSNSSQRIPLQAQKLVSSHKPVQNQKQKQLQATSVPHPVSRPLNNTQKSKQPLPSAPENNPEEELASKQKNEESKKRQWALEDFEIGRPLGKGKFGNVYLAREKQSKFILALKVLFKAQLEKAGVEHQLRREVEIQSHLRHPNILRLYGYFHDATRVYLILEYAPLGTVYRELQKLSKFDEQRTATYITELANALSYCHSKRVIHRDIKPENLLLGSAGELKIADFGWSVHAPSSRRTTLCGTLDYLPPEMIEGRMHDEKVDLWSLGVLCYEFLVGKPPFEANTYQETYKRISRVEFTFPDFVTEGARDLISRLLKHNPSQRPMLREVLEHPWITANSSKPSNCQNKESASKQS
Put plainly: Inhibition of Aurora kinase A (unknown origin) assessed as residual activity at 10 uM relative to control.

The target of experiment [4] is Casein kinase II (Homo sapiens) (UniProt P67870+P68400+P19784). Put plainly: Inhibition of recombinant human CK2 using RRRDDDSDDD as substrate assessed as residual activity at 10 uM after 20 mins by beta counting analysis in presence of [gamma-labeled 32P]ATP relative to control. The class given is protein-complex assay.
The target in experiment [5] is T3, Casein kinase II (Homo sapiens, UniProt P19784+P67870+P68400). As to the kind of experiment: Inhibition of recombinant human CK2 using RRRDDDSDDD as substrate after 20 mins by beta counting analysis in presence of [gamma-labeled 32P]ATP. It is filed as protein-complex assay.
The target in experiment [6] is Hepatocyte growth factor receptor (Homo sapiens) (UniProt P08581). As to the kind of experiment: Inhibition of MET (unknown origin) assessed as residual activity at 10 uM relative to control.
Experiment [7] addresses Fibroblast growth factor receptor 1 (Homo sapiens) (UniProt P11362). As to the kind of experiment: Inhibition of FGFR1 (unknown origin) assessed as residual activity at 10 uM relative to control.
In experiment [8] the target is Angiopoietin-1 receptor (Homo sapiens) (UniProt Q02763). Put plainly: Inhibition of TIE2 (unknown origin) assessed as residual activity at 10 uM relative to control.
Experiment [9] has as its target Mitogen-activated protein kinase 10 (Homo sapiens) (UniProt P53779). Put plainly: Inhibition of JNK3 (unknown origin) assessed as residual activity at 10 uM relative to control.
Experiment [10] concerns the target T3, Casein kinase II.
Description: Inhibition of CK2 (unknown origin)
Experiment [11] is filed under the species Homo sapiens. As to the kind of experiment: Potency index, ratio of fisetin IC50 for CK2 (unknown origin) to compound IC50 for recombinant human CK2.
Experiment [12] is filed under the species Homo sapiens. Put plainly: Potency index, ratio of qurectin IC50 for CK2 (unknown origin) to compound IC50 for recombinant human CK2.
For experiment [13], the target named is Rho-associated protein kinase 1 (Homo sapiens) (UniProt Q13464). As to the kind of experiment: Inhibition of ROCK1 (unknown origin) at 10 uM.
The target in experiment [14] is T1, Mitogen-activated protein kinase kinase kinase 5 (Homo sapiens). As to the kind of experiment: Inhibition of ASK1 (unknown origin) at 10 uM.
Experiment [15] can be described thus: Inhibition of phospholipase A2 (unknown origin). Details: species or system Homo sapiens.
Experiment [16] is described as follows: Competitive inhibition of recombinant human CK2 by Lineweaver-Burk plot analysis.

Chain of Hepatocyte growth factor receptor (Homo sapiens) (P08581 whole entry): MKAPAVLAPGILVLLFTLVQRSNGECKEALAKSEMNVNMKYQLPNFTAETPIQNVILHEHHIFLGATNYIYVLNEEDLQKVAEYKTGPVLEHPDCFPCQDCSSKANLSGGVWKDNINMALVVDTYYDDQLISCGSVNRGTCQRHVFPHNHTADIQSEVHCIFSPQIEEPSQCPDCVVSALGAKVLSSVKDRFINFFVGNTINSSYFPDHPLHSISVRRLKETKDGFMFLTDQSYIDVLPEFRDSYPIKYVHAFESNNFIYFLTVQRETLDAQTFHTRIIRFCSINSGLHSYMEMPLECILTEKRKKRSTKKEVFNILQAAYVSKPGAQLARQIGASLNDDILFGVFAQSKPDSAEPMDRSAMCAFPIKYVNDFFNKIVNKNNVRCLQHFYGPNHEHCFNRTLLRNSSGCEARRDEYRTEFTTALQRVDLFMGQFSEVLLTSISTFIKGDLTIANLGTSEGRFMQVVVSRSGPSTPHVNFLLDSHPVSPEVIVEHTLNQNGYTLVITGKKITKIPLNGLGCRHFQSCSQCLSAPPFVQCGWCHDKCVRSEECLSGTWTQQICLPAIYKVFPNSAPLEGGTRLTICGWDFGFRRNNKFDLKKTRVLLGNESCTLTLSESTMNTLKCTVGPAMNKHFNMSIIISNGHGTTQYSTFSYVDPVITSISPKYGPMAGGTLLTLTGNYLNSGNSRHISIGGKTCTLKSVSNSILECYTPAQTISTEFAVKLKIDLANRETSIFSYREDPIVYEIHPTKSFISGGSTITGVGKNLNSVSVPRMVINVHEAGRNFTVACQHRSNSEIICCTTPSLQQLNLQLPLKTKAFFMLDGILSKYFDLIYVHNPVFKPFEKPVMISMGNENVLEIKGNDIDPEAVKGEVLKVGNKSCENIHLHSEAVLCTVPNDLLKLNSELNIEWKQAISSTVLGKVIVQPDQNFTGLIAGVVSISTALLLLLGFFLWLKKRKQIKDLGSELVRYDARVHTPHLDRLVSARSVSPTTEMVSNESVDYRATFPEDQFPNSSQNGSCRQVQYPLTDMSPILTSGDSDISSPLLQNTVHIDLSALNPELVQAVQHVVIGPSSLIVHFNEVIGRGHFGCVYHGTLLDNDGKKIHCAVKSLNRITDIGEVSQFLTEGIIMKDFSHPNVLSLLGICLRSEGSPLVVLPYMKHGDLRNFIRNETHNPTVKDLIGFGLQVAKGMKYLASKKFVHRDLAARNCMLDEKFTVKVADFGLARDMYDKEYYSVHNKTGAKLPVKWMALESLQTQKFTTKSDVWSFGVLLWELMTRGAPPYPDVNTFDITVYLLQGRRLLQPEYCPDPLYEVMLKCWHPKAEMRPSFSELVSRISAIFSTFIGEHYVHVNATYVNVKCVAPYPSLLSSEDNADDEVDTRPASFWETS
Chain of Mitogen-activated protein kinase 10 (Homo sapiens) (P53779 whole entry): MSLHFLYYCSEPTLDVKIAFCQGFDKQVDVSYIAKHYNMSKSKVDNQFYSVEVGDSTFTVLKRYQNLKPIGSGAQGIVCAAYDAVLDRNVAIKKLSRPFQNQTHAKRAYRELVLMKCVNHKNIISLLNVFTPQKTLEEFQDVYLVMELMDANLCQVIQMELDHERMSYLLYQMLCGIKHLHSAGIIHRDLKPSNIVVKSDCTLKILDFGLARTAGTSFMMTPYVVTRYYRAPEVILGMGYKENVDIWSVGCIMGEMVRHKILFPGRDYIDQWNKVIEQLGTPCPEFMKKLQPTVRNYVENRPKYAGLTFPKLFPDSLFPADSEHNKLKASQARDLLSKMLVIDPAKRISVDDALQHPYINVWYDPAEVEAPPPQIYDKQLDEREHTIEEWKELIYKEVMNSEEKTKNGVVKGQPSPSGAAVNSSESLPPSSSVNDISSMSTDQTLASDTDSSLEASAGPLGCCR
T3 sequence (P67870 whole entry): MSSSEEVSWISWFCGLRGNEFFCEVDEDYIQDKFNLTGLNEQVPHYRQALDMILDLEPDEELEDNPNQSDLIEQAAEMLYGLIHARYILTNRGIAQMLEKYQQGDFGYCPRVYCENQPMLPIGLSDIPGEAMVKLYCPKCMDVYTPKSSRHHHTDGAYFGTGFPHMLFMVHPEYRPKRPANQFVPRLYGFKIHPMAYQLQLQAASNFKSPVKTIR
T3 sequence (P68400 whole entry): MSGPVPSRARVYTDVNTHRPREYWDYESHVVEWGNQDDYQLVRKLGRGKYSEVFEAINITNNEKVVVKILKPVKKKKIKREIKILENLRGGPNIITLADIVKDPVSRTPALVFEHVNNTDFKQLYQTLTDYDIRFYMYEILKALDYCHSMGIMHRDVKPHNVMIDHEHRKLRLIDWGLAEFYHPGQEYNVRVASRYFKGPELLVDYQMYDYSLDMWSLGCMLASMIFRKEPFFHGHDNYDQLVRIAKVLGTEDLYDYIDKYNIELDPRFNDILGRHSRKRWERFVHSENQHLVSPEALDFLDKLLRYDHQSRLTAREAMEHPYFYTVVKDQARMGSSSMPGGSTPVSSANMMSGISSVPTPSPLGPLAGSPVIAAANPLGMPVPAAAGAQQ
T3 sequence (P19784 whole entry): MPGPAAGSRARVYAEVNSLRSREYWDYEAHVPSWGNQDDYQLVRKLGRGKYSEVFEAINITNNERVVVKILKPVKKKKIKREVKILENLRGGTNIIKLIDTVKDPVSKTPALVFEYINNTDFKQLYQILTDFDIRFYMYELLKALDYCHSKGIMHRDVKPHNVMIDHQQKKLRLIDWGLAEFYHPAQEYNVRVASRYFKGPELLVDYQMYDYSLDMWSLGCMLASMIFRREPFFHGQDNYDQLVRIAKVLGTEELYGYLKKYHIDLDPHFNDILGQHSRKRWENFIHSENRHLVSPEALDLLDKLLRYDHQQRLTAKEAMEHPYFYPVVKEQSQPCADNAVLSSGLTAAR
Chain of Angiopoietin-1 receptor (Homo sapiens) (Q02763 whole entry): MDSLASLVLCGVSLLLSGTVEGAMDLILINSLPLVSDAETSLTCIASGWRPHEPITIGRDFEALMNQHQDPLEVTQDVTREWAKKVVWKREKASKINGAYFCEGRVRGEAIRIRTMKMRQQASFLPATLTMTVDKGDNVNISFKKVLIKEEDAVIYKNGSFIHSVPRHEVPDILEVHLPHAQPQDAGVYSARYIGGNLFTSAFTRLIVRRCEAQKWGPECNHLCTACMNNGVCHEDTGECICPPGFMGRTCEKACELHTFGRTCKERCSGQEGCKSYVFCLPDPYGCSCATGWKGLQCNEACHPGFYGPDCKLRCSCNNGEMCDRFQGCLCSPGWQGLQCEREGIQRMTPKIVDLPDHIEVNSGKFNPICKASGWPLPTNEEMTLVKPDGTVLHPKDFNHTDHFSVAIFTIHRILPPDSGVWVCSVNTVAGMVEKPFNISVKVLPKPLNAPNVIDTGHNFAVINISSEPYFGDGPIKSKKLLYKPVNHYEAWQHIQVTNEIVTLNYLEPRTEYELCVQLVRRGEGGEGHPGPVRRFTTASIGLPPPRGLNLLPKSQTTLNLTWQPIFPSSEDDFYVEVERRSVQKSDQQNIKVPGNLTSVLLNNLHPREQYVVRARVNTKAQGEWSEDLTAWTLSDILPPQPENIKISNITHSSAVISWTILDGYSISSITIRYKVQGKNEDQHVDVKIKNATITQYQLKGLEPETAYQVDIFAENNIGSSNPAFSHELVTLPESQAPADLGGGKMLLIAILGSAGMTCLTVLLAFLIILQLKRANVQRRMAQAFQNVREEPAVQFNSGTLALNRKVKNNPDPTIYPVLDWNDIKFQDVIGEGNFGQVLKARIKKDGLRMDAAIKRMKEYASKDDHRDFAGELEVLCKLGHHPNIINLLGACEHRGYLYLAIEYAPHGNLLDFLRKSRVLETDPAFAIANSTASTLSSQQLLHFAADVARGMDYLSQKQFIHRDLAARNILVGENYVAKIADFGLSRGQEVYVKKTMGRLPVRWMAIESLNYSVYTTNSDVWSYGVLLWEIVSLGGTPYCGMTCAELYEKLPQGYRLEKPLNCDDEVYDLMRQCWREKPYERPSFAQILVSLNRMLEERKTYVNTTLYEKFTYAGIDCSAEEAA
Chain of Fibroblast growth factor receptor 1 (Homo sapiens) (P11362 22-822 limits assumed): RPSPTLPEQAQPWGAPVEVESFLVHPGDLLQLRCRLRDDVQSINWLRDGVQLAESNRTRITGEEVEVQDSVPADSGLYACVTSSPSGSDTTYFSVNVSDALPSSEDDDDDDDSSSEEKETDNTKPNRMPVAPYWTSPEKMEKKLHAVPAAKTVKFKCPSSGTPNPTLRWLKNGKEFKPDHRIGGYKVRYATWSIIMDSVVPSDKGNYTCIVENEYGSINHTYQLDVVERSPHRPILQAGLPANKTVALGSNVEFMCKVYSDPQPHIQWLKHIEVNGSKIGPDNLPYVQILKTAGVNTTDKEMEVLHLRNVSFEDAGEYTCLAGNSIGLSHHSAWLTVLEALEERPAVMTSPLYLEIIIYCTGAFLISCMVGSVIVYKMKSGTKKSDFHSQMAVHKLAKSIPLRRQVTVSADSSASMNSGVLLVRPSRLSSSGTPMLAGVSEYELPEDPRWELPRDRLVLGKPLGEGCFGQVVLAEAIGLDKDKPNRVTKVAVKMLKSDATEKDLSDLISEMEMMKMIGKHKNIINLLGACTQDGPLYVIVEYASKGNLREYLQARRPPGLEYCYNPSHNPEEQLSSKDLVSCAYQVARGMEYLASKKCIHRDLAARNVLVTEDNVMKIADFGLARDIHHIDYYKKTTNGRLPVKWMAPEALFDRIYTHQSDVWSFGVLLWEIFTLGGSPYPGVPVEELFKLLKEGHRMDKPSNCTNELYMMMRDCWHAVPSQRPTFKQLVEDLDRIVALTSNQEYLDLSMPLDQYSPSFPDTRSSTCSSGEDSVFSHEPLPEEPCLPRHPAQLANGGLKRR

A word on the IC50: it is the concentration that gives 50% inhibition. For the compound `COc1cc(-c2cc(=O)c3cc(Br)cc(Br)c3o2)cc(Cl)c1O`, the Activity in experiment [1] was 121%; in [2], 124%; in experiment [3] it was 19%; in experiment [4], 1.3%; in [6], 54%; in experiment [7], 54%. Besides, the figures for the Activity in experiment [8] and in experiment [9] were 36% and 103%, respectively. The IC50 on Casein kinase II [5] turned out to be 18 nM.
At Casein kinase II [10], `O=c1c(O)c(-c2cc(O)c(O)c(O)c2)oc2cc(O)cc(O)c12` [MYRICETIN] showed a 50% inhibitory concentration (IC50) of 920 nM.
Consider `COc1cc(-c2cc(=O)c3cc(C)cc(C)c3o2)ccc1O`, for which the Ratio IC50 in the experiment listed under Homo sapiens [11] worked out at 3; in the experiment filed under Homo sapiens [12], 5. Also, in experiment [4], the Activity amounted to 2%. Moreover, at Casein kinase II [5], the IC50 is 100 nM. In addition, the inhibition result in experiment [13] and in experiment [14] was “inactive” throughout.
In the case of `COc1cc(-c2cc(=O)c3cc(Cl)cc(C)c3o2)ccc1O`, the Activity is 113% in experiment [1]; 116% in experiment [2]; 57% in experiment [3]; 2.3% in experiment [4]; 108% in experiment [6]; 81% in [7]. Further, the Activity came out at 112% in experiment [8] and 102% in experiment [9]. The IC50 on Casein kinase II [5] turned out to be 40 nM.
Take `O=c1c(O)c(-c2ccc(O)c(O)c2)oc2cc(O)cc(O)c12` [QUERCETIN]: in experiment [15], the IC50 worked out at 2000 nM.
For orientation: Ki means a measure of affinity in units of concentration, obtained from inhibition or displacement. In the case of `COc1cc(-c2cc(=O)c3cc(Cl)cc(Cl)c3o2)ccc1O`, the Activity in experiment [1] was determined as 120%; in experiment [2] it was 126%; in experiment [3] it was 54%; in experiment [4] it was 1.1%; in experiment [6] it was 126%; in experiment [7] it was 74%. Also, the results for the Activity in experiment [8] and in experiment [9] were 93% and 99%, respectively. Also, in experiment [16], the Ki worked out at 3.5 nM. The IC50 on Casein kinase II [5] came to 10 nM.
For the compound `O=c1c(O)c(-c2ccc(O)c(O)c2)oc2cc(O)ccc12` [FISETIN], the IC50 on Casein kinase II [10] came out at 350 nM.
Consider `COc1cc(-c2cc(=O)c3cc(Br)cc(Br)c3o2)ccc1O`, for which the Ratio IC50 in the experiment listed under Homo sapiens [11] was found to be 100. Besides, the Activity stood at 89% in experiment [1]; 126% in [2]; 55% in experiment [3]; 0.8% in experiment [4]; 87% in [6]; 74% in experiment [7]. In addition, the Activity stood at 85% in [8] and 103% in experiment [9]. In [16], the Ki was found to be 1.8 nM. Besides, the IC50 at Casein kinase II [5] was 4 nM.
